{"source": "PubChem BioAssay AID493064", "about": "(Broad Institute, 2011)", "key": {"PubChem AID 493064": {"assay": "PubChem AID 493064", "conditions": "C. albicans CaCi-8 + fluconazole, Alamar Blue growth, 48 h; at 26 µM (top of the series)"}, "[1]": {"system": "C. albicans CaCi-8 + fluconazole, Alamar Blue growth, 48 h", "assay": "PubChem AID 493064"}}, "note": "“And” between values parts separate entries of the source, which are not always exact repeats. Equal entries are not always repeated. Records with an inconclusive call do not appear. The source made the active and inactive calls. The rule behind the calls is not given here.", "data": [{"smiles": "O=C(c1cccc(Cl)c1)N1CCN(c2ccccn2)CC1", "values": [{"measurement": "activity change, negative = inhibition", "setting": "PubChem AID 493064", "result": "-1.33% (inactive)"}]}, {"smiles": "O=C(c1ccc(Cl)cc1)N1CCN(c2cccc(C(F)(F)F)n2)CC1", "values": [{"measurement": "activity change, negative = inhibition", "setting": "PubChem AID 493064", "result": "-8.21% (inactive)"}]}, {"smiles": "N#Cc1ccc(N2CCN(C(=O)c3ccc(Cl)cc3)CC2)nc1", "values": [{"measurement": "AC50", "setting": "[1]", "result": "> 26 µM (inactive)"}]}, {"smiles": "O=C(Cn1c2ccc(F)cc2c2nc3n(c(=O)c21)CCS3)N1CCCCC1", "values": [{"measurement": "activity change, negative = inhibition", "setting": "PubChem AID 493064", "result": "8.36% (inactive)"}]}, {"smiles": "CCN(CC)C(=O)Cn1c2ccccc2c2nc3n(c(=O)c21)CCS3", "values": [{"measurement": "activity change, negative = inhibition", "setting": "PubChem AID 493064", "result": "8.8% (inactive) and 7.89% (inactive)"}]}, {"smiles": "CC1CCN(C(=O)Cn2c3ccccc3c3nc4n(c(=O)c32)CCS4)CC1", "values": [{"measurement": "AC50", "setting": "[1]", "result": 8.88, "unit": "µM"}]}, {"smiles": "CC(C)C(=O)N1CCN(c2ccccn2)CC1", "values": [{"measurement": "activity change, negative = inhibition", "setting": "PubChem AID 493064", "result": "-2.77% (inactive)"}]}, {"smiles": "O=C(Cn1nc(-c2ccccc2)c2ccccc21)NCc1ccc(Cl)cc1", "values": [{"measurement": "activity change, negative = inhibition", "setting": "PubChem AID 493064", "result": "-6.6% (inactive)"}]}, {"smiles": "O=C(c1ccc(Cl)cc1)N1CCN(c2nc3ccccc3s2)CC1", "values": [{"measurement": "AC50", "setting": "[1]", "result": 4.94, "unit": "µM"}]}, {"smiles": "O=C(Cn1nc(-c2ccccc2)c2cc(Cl)ccc21)N1CCOCC1", "values": [{"measurement": "AC50", "setting": "[1]", "result": "> 26 µM (inactive)"}]}, {"smiles": "Cc1ccnc(N2CCN(C(=O)c3ccc(Cl)cc3)CC2)c1", "values": [{"measurement": "activity change, negative = inhibition", "setting": "PubChem AID 493064", "result": "-6.71% (inactive)"}]}, {"smiles": "COC(=O)Cn1nc(C)c2ccccc21", "values": [{"measurement": "activity change, negative = inhibition", "setting": "PubChem AID 493064", "result": "-17.2% (inactive)"}]}, {"smiles": "O=C(O)c1nn(Cc2ccc(Cl)cc2)c2ccccc12", "values": [{"measurement": "AC50", "setting": "[1]", "result": "> 26 µM (inactive)"}]}, {"smiles": "O=C(Cn1nc(C(=O)N2CCCCC2)c2ccccc21)N1CCOCC1", "values": [{"measurement": "activity change, negative = inhibition", "setting": "PubChem AID 493064", "result": "-1.16% (inactive)"}]}, {"smiles": "CCCCC(=O)N1CCN(c2ccccn2)CC1", "values": [{"measurement": "activity change, negative = inhibition", "setting": "PubChem AID 493064", "result": "-12.5% (inactive)"}]}, {"smiles": "COc1ccc(C(=O)N2CCN(c3ccccn3)CC2)cc1", "values": [{"measurement": "AC50", "setting": "[1]", "result": 7.53, "unit": "µM"}]}, {"smiles": "CCOC(=O)c1c2ccccc2nn1Cc1ccc(Cl)cc1", "values": [{"measurement": "activity change, negative = inhibition", "setting": "PubChem AID 493064", "result": "5.94% (inactive)"}]}, {"smiles": "O=C(O)Cn1nc(-c2ccccc2)c2ccccc21", "values": [{"measurement": "activity change, negative = inhibition", "setting": "PubChem AID 493064", "result": "-17.8% (inactive)"}]}, {"smiles": "COC(=O)Cn1c(-c2ccccc2)nc2ccccc21", "values": [{"measurement": "activity change, negative = inhibition", "setting": "PubChem AID 493064", "result": "-13.8% (inactive)"}]}, {"smiles": "COC(=O)Cn1nc(-c2ccccc2)c2ccccc21", "values": [{"measurement": "AC50", "setting": "[1]", "result": 3.13, "unit": "µM"}]}]}
